Usually GI50 stands for the concentration at which growth is held to half of that of the control. Usually TGI stands for the concentration at which net growth stops. High values mean less potent growth arrest, low ones more potent growth arrest.

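Compound exposure: 48 hours, 5 concentrations, 96-well plates. GI50 = concentration required for 50% inhibition of growth. The concentration for full growth arrest is given as TGI.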

Test systems include SR leukemia; U251 CNS; NCI-H23 lung; MDA-MB-231 breast; OVCAR-8 ovarian; NCI-H226 lung; HCC-2998 colon; KM12 colon; OVCAR-4 ovarian; DU-145 prostate.
Common to all, as to experiment: DTP human tumour cell line panel, 48 h

On to `CCc1cc(Cc2cc(CC)cc(C(C)(C)C)c2O)c(O)c(C(C)(C)C)c1`, for which the GI50 was 3.28 µM in the assay on SR leukemia; 3.13 µM in the assay on U251 CNS; 3.33 µM with NCI-H23 lung; 1.87 µM in the assay with MDA-MB-231 breast; 3.45 µM with OVCAR-8 ovarian; 4.88 µM with NCI-H226 lung. In addition, the GI50 in the assay on HCC-2998 colon was 2.42 µM; in the assay on KM12 colon it was 2.28 µM; in the assay on OVCAR-4 ovarian it was 3.56 µM; in the assay on DU-145 prostate, 3.53 µM. The TGI in the assay on SR leukemia was 18.7 µM; in the assay with U251 CNS, 11 µM; with NCI-H23 lung it was 12.5 µM; with MDA-MB-231 breast it was 3.92 µM; in the assay on OVCAR-8 ovarian, 12.3 µM; in the assay with NCI-H226 lung, 16.1 µM. In addition, the total growth inhibition concentration (TGI) with HCC-2998 colon stood at 6.52 µM; in the assay on KM12 colon it was 6.35 µM; in the assay with OVCAR-4 ovarian, 12.7 µM; in the assay on DU-145 prostate it was 13 µM.
On to `COc1ccc2nc3c(cc2c1)C(=O)CC(C(F)(F)F)C3` (stereo not given), for which the GI50 was 0.262 µM in the assay on SR leukemia; 5.82 µM in the assay on U251 CNS; 5.39 µM in the assay on NCI-H23 lung; 2.34 µM with MDA-MB-231 breast; 1.22 µM with OVCAR-8 ovarian; 3.28 µM in the assay on NCI-H226 lung. The GI50 is 4.14 µM in the assay on HCC-2998 colon, 0.351 µM in the assay on KM12 colon, 27 µM in the assay with OVCAR-4 ovarian and 0.714 µM with DU-145 prostate. Also, the TGI in the assay on SR leukemia, with U251 CNS, with NCI-H23 lung, with MDA-MB-231 breast, in the assay on OVCAR-8 ovarian and with NCI-H226 lung was more than 100 µM in each case. For the same compound, the TGI with HCC-2998 colon is 99.1 µM; in the assay on KM12 colon, more than 100 µM; with OVCAR-4 ovarian, more than 100 µM; with DU-145 prostate it was more than 100 µM.
As to `Nc1c(C(=O)Nc2cccc3ccccc23)sc2nc3c(cc12)CCCCCC3`, the GI50 was 0.429 µM in the assay with SR leukemia; 1.87 µM in the assay with U251 CNS; 1.97 µM in the assay on NCI-H23 lung; 2.75 µM in the assay on MDA-MB-231 breast; 2 µM with OVCAR-8 ovarian; 5.5 µM in the assay on NCI-H226 lung. Also, the GI50 was 2.64 µM in the assay with HCC-2998 colon, 1.39 µM with KM12 colon, 5.75 µM in the assay on OVCAR-4 ovarian and 2.05 µM with DU-145 prostate. Besides, the TGI with SR leukemia, in the assay with U251 CNS, in the assay on NCI-H23 lung, in the assay with MDA-MB-231 breast, with OVCAR-8 ovarian and in the assay with NCI-H226 lung was more than 50 µM throughout. The TGI with HCC-2998 colon, with KM12 colon, in the assay with OVCAR-4 ovarian and with DU-145 prostate was more than 50 µM in each case.
`c1ccc(Oc2cnc3ccccc3n2)cc1`: the GI50 with SR leukemia is 55.3 µM; with U251 CNS, more than 100 µM; with NCI-H23 lung it was more than 100 µM; with MDA-MB-231 breast it was more than 100 µM; in the assay on OVCAR-8 ovarian, more than 100 µM; in the assay with NCI-H226 lung, 28.1 µM. Besides, the GI50 in the assay with HCC-2998 colon, in the assay with KM12 colon, with OVCAR-4 ovarian and with DU-145 prostate was more than 100 µM in each case. For the same compound, the TGI with SR leukemia, with U251 CNS, in the assay on NCI-H23 lung, in the assay on MDA-MB-231 breast, in the assay on OVCAR-8 ovarian and with NCI-H226 lung was more than 100 µM in each case. Moreover, the TGI in the assay with HCC-2998 colon, in the assay on KM12 colon, in the assay with OVCAR-4 ovarian and with DU-145 prostate was more than 100 µM in each case.
As to `Cn1cc(C2=C(c3cn(CCCN/C(N)=N\[N+](=O)[O-])c4ccccc34)C(=O)NC2=O)c2ccccc21`, the GI50 in the assay with SR leukemia is 0.898 µM; in the assay on U251 CNS it was 2.05 µM; in the assay on NCI-H23 lung, 5.13 µM; in the assay on MDA-MB-231 breast it was 3.8 µM; in the assay with OVCAR-8 ovarian it was 3.98 µM; in the assay on NCI-H226 lung, 4.56 µM. For the same compound, the GI50 with HCC-2998 colon was 6.72 µM; in the assay with KM12 colon, 2.77 µM; in the assay on OVCAR-4 ovarian, 3.22 µM; in the assay with DU-145 prostate, 6.75 µM. Besides, the TGI in the assay with SR leukemia is 3.96 µM; in the assay on U251 CNS, 15.4 µM; in the assay with NCI-H23 lung, 15.9 µM; in the assay on MDA-MB-231 breast, 16.5 µM; in the assay with OVCAR-8 ovarian it was more than 18.5 µM; in the assay with NCI-H226 lung it was more than 19.1 µM. Moreover, the TGI was 20.4 µM in the assay on HCC-2998 colon, more than 18.1 µM in the assay with KM12 colon, 17.4 µM in the assay with OVCAR-4 ovarian and 23.6 µM with DU-145 prostate.
As for `O=C1COCCN1c1ccc(NCc2cn(Cc3ccc(F)cc3)c3ccccc23)cc1`, the GI50 in the assay with SR leukemia is 3.84 µM; in the assay on U251 CNS, 0.645 µM; in the assay with NCI-H23 lung it was 2.64 µM; in the assay on MDA-MB-231 breast, 4.9 µM; in the assay on OVCAR-8 ovarian, 4.3 µM; in the assay on NCI-H226 lung, 0.0593 µM. For the same compound, the GI50 is 11.1 µM with HCC-2998 colon, 15 µM in the assay with KM12 colon, 0.173 µM in the assay with OVCAR-4 ovarian and 5.33 µM in the assay on DU-145 prostate. The TGI in the assay with SR leukemia is more than 100 µM; in the assay on U251 CNS it was 38.5 µM; with NCI-H23 lung, 32.1 µM; with MDA-MB-231 breast, 27.5 µM; with OVCAR-8 ovarian it was more than 86.8 µM; in the assay on NCI-H226 lung, 0.275 µM. Moreover, the TGI in the assay with HCC-2998 colon was 51.7 µM; in the assay with KM12 colon, more than 75.9 µM; in the assay on OVCAR-4 ovarian it was 3 µM; with DU-145 prostate, more than 69.1 µM.

The values are drawn from PubChem BioAssay (NCI).
